The test system of experiment [1] is phenylephrine-induced urethral pressure increase. Description: Effect on rat urethral pressure (phenylephrine-induced urethral pressure increase). It counts as in vivo. The conditions noted are these: read-out: ID40. As for the experimental part: The present Test Example was performed by partially modifying the technique reported as a testing system for evaluating a urethral resistance-reducing action (European Journal of Pharmacology, 679, 127-131 (2012)). Male Wistar rats (Charles River Laboratories Japan, Inc.) were anesthetized with urethane (1.2 g/kg ip), and immobilized in a supine position. The midline incision was performed in the lower abdominal portion such that the bladder was exposed. The bladder apex was incised, and from the incision site, a microchip pressure transducer catheter (3.5 Fr, Millar, Inc) was inserted and implanted into the inside of the urethra. In addition, a cannula for drug administration was implanted into the femoral vein. After the urethral pressure was stabilized, phenylephrine hydrochloride (Sigma-Aldrich Co. LLC., 30 μg/kg) was intravenously administered to induce an increase in the urethral pressure. At an interval of about 30 minutes, the above operation was repeated twice or more so as to confirm the stability of the phenylephrine hydrochloride-induced urethral pressure increasing reaction. Then, a test compound (dissolved in 20% dimethyl acetamide, 10% Cremophor (registered trademark), and 70% physiological saline) was intravenously administered, and after 5 minutes, phenylephrine hydrochloride was administered. The procedure of the administration of the test compound and the administration of phenylephrine hydrochloride was repeated at an interval of about 30 minutes, and 3 to 5 doses of the test compound was evaluated (the test compound was administered at increasing doses). The obtained data was introduced into a personal computer through PowerLab (registered trademark) (ADInstruments, Inc.) and analyzed using LabChart (registered trademark) (ADInstruments, Inc.). For the evaluation, the value (AUC value, mmHg-s) of the area under the urethral pressure for one minute before and after administration of phenylephrine hydrochloride was determined to calculate the difference (ΔAUC value) between the AUC value before the administration of phenylephrine hydrochloride and the AUC value after the administration of phenylephrine hydrochloride. The ΔAUC value obtained before administering the test compound was regarded as being 100%, and based on this, the ratio (reaction rate) of the ΔAUC value of the test compound at each dose was calculated. The dose at which the obtained reaction rate became 60% (40% as an inhibition rate) was defined as ID40, and the ID40 values of the test compounds were calculated by non-linear regression.

Another experiment addresses T1, rat MC4 receptor (Rattus norvegicus, UniProt P70596).
T1 construct: expressed in transfected cells; host or cells: FreeStyle 293-F cells (transient, electroporation)
Description: Rat MC4 receptor activation, cAMP production in cells transiently expressing the receptor. In kind it is cell-based. The conditions noted are these: FreeStyle 293-F cells expressing rat MC4 receptor, α-MSH maximum = 100%. An excerpt: (1) Construction of Rat MC4 Receptor-Expressing Vector
A rat MC4 receptor gene (GenBank Accession No.: NM_013099.3) was introduced into an expression vector pcDNA™ 3.1N/V5-His TOPO (registered trademark) (Thermo Fisher Scientific Inc.).
(2) Construction of Cells Transiently Expressing Rat MC4 Receptor
An expression vector for a rat MC4 receptor was introduced into FreeStyle™ 293-F cells (Thermo Fisher Scientific Inc.). For the introduction, electroporation was employed. That is, 1×10^7 FreeStyle™ 293-F cells were suspended in 80 μL of an electroporation buffer (Thermo Fisher Scientific Inc.), and 20 μg of the expression vector was added thereto. The resultant was put into a cuvette (OC-100 Processing Assembly, MaxCyte, Inc.) and electroporated with MaxCyte STX (registered trademark) (MaxCyte, Inc.). The cells were cultured for a day, suspended in a Cell Banker (registered trademark) 1 (TAKARA BIO INC. or JUJI FIELD Inc.), and stored frozen until they were used.
(3) Measurement of Amount of cAMP Production
Measurement was carried out in accordance with the attached instructions, using a LANCE (registered trademark) Ultra cAMP Kit (PerkinElmer, Inc.). That is, after dissolution in DMSO, the test compound (a final concentration of 1 pM to 30 μM) diluted with an assay buffer (Hank's balanced salt solution, 5 mM HEPES, 0.5 mM IBMX, 0.1% bovine serum albumin, pH 7.4), or α-MSH (Bachem Inc., a final concentration of 1 pM to 30 μM) was added to OptiPlate-384 (PerkinElmer, Inc.). Furthermore, the suspension of the cells transiently expressing the rat MC receptor that was prepared using the assay buffer was added thereto at 1,000 cells/well, and then left to stand at room temperature for about 1 hour. Thereafter, an Eu-cAMP tracer solution and an ULight™-anti-cAMP solution were added thereto, and the resulting solution was left to stand at room temperature for about 1 hour. The amount of cAMP was calculated using EnVision (registered trademark) (PerkinElmer Inc).
For the agonistic activity, an efficacy (EC50 (μM)) was calculated by a non-linear regression method with a Sigmoid-Emax model, by defining the maximum reaction using α-MSH as 100% and the reaction using a vehicle alone as 0%, respectively.
In general terms: Cyclic AMP is a second messenger, typically raised through Gs and lowered through Gi signalling.

Where [2] appears, read: male Wistar rats, urethane anesthesia, intravenous, dose giving 40% inhibition of phenylephrine-induced urethral pressure ΔAUC.

Read-outs that look alike come from different tables or passages of the source.

T1 sequence (P70596 whole entry): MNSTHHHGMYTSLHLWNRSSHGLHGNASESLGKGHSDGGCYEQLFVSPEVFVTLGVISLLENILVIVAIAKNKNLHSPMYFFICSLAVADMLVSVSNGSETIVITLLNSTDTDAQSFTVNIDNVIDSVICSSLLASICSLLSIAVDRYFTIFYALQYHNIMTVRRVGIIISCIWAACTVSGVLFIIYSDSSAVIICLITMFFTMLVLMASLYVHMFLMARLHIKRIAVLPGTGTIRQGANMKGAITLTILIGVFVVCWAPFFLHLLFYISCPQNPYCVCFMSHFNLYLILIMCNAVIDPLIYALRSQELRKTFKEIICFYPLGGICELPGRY

Take `CC(=O)N[C@@H](CC(C)C)C(=O)N1CCN(C(=O)[C@@H]2CN(C(C)(C)C)C[C@H]2c2ccc(Cl)cc2F)C[C@H]1C` [Example 5]: the ED40 in experiment [1] (iv) is 25 mg/kg. The EC50 – broadly, the concentration that produces a half-maximal response – at rat MC4 receptor came to 3.3 nM.
Turning to `CC(=O)N[C@@H](CC(C)(C)C)C(=O)N1CCN(C(=O)[C@@H]2CN(C(C)(C)C)C[C@H]2c2ccc(F)cc2F)[C@@H](C)C1.Cl` [Example 8], the ED40 in experiment [1] (setting [2]) worked out at 15 mg/kg. Besides, on rat MC4 receptor, the EC50 was 4.7 nM.
On the same counts, the results for `CC(=O)N[C@H](C(=O)N1CCN(C(=O)[C@@H]2CN(C(C)(C)C)C[C@H]2c2ccc(F)cc2F)[C@@H](C)C1)C1CCCCC1.Cl` [Example 6, N-{(1S)-2-[(3S)-4-{[(3S,4R)-1-tert-butyl-4-(2,4-difluorophenyl)pyrrolidin-3-yl]carbonyl}-3-methylpiperazin-1-yl]-1-cyclohexyl-2-oxoethyl}acetamide monohydrochloride] are 46 mg/kg and 16 nM.
On the same counts, the results for `CC(=O)N[C@@H](CC(C)(C)C)C(=O)N1C[C@H](C)N(C(=O)[C@@H]2CN(C(C)(C)C)C[C@H]2c2ccc(F)cc2F)C[C@H]1C.Cl` [Example 4, N-{(2S)-1-[(2R,5S)-4-{[(3 S,4R)-1-tert-butyl-4-(2,4-difluorophenyl)pyrrolidin-3-yl]carbonyl}-2,5-dimethylpiperazin-1-yl]-4,4-dimethyl-1-oxopentan-2-yl}acetamide monohydrochloride] are 11 mg/kg and 2 nM.
On the same counts, the results for `CC(=O)N[C@@H](CC(C)(C)C)C(=O)N1C[C@H](C)N(C(=O)C2CN(C(C)(C)C)CC2c2ccc(F)cc2)C[C@H]1C.Cl` (stereo partly shown) [Example 11] are 28 mg/kg and 10 nM.

The record behind these values is patent US10710988B2, “Piperazine derivative” (Astellas Pharma Inc., priority 2016, dated 2020).
